The values below come from ChEMBL document CHEMBL2407033, “Pin1 inhibitors: Pitfalls, progress and cellular pharmacology” (Bioorg Med Chem Lett, 2013).

Each structure is given as a SMILES string. Where a SMILES comes first, the peptide text is derived from it. Bridges are numbered along the chain shown (N, C = ends).

Data set [1] deals with T1, Peptidyl-prolyl cis-trans isomerase NIMA-interacting 1 (Homo sapiens, UniProt Q13526). The data set can be described thus: Inhibition of Pin1 (unknown origin).
T1 sequence (Q13526 whole entry): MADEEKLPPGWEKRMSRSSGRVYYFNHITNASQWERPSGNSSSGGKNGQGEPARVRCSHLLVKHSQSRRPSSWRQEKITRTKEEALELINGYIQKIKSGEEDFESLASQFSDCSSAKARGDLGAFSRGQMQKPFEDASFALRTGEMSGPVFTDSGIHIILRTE
Data set [2] concerns the target T1, Peptidyl-prolyl cis-trans isomerase NIMA-interacting 1. The data set can be described thus: Competitive inhibition of Pin1 (unknown origin) by Lineweaver-Burk plot analysis.
For data set [3] the target is unchanged. The data set is described as follows: Binding affinity to GST-tagged Pin1 (unknown origin) by SPR spectroscopic analysis.
Data set [4] has the same target. The data set can be described thus: Inhibition of GST-tagged Pin1 (unknown origin) using Suc-AEPF-pNA and WFYpSPR-pNA as substrate after 5 mins.
The target is the same in data set [5]. The data set is described as follows: Inhibition of human Pin1.
Data set [6] shares this target. The data set can be described thus: Inhibition of Pin1 in human MCF7 cells assessed as inhibition of etoposide-induced p53 transcription at 10 uM by luciferase reporter gene assay relative to control. It is filed as cell-based.
For data set [7] the target is unchanged. The data set is described as follows: Inhibition of Pin1 (unknown origin) using Suc-Ala-Glu-cis-Pro-Phe-pNA as substrate.
A short description of data set [8]: Growth inhibition of human […] cells. It is filed as functional.
The test system of data set [9] is MEF. The data set can be described thus: Growth inhibition of MEF expressing Pin1. It is filed as functional. The conditions noted are these: Mus musculus.
The nature of data set [10]: Growth inhibition of Pin1-deficient MEF. It is filed as cell-based. Conditions: mouse, Pin1-deficient MEF cells.
For data set [11], the target named is T1, Peptidyl-prolyl cis-trans isomerase NIMA-interacting 1. The data set can be described thus: Inhibition of full length Pin1 (unknown origin) using WFY(pS)PR-pNA as substrate by spectrophotometric analysis.
For data set [12] the target is unchanged. The data set is described as follows: Reversible inhibition of human Pin1.
Data set [13] has the same target. The data set can be described thus: Inhibition of Pin1 in human MCF7 cells assessed as inhibition of etoposide-induced p53 transcription at 30 uM by luciferase reporter gene assay relative to control. It is filed as cell-based.
The target is the same in data set [14]. The data set can be described thus: Inhibition of Pin1 (unknown origin) using Suc-Ala-Glu-Pro-Phe-MCA as substrate after 120 secs by fluorescence microtiter plate reader analysis.
Data set [15] concerns the target Peptidyl-prolyl cis-trans isomerase NIMA-interacting 4 (Homo sapiens, UniProt Q9Y237). The data set can be described thus: Inhibition of Par14 (unknown origin).

Peptidyl-prolyl cis-trans isomerase NIMA-interacting 4, sequence (Q9Y237 whole entry): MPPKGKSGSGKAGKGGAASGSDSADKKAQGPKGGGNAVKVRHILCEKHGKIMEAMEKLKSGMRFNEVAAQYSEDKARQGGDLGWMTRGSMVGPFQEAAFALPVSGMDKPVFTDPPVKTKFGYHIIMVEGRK

As for `O=C(N[C@@H](COP(=O)(O)O)CN1CCC[C@H]1C(=O)NCCc1c[nH]c2ccccc12)OCC1c2ccccc2-c2ccccc21`, half-maximal inhibition in data set [1] (IC50) was put at 6000 nM. In [2], `S=C(SC(=S)N1CCCCC1)N1CCCCC1` gave a Ki of 50 nM. Moreover, in data set [1], it took 4000 nM to reach half-maximal inhibition (IC50). In [3], `O=c1ccsn1-c1ccc(F)c(Cl)c1` came in with an IC50 of 6100 nM.

`CC[C@H](C)[C@@H]1NC(=O)[C@H](CCC(=O)O)NC(=O)[C@H](C(C)C)NC(=O)[C@H](CCC(=O)O)NC(=O)[C@@H]2CCCN2C(=O)[C@H](Cc2ccc(O)cc2)NC(=O)[C@H](CCCN=C(N)N)NC(=O)[C@@H](N)CSSC[C@@H](C(=O)O)NC1=O` [CYCLIC CRYPEVEIC] (H-CRYPEVEIC-OH; disulfide 1-9) showed an IC50 in data set [4] of 500 nM.

`O=C(O)C[C@@H](C/C=C/c1cccc(F)c1)NC(=O)c1ccc2ccccc2c1` came in with an IC50 in [5] of 890 nM. Same read-out and setting: next, `O=C(N[C@H](Cc1cccc(F)c1)c1nn[nH]n1)c1ccc2ccccc2c1`: 4000 nM. For `COc1ccc(F)cc1C(=O)[C@]1(C)CCc2ccccc21`, the inhibition in [6] is > 75%. Also, the IC50 in data set [1] came to 5600 nM. The compound `Cc1oc(-c2ccc(CN)cc2)cc1C(=O)N[C@H](Cc1nc2ccccc2[nH]1)C(=O)O` showed an IC50 in data set [1] of 25 nM.

On to `CC(=O)N[C@@H](Cc1ccccc1)C(=O)N[C@@H](Cc1ccccc1)C(=O)N[C@H](/C=C1/CCC[C@H]1C(=O)N[C@@H](CCCNC(=N)N)C(N)=O)COP(=O)(O)O`, for which the midpoint of inhibition in [7], the IC50, lay at 1500 nM. The compound further registered a GI50 in data set [8] of 8000 nM.

On to `O=C(O[C@@H]1Cc2c(O)cc(O)cc2O[C@@H]1c1cc(O)c(O)c(O)c1)c1cc(O)c(O)c(O)c1` [EPIGALOCATECHIN GALLATE], for which the results for the GI50 in data set [9] and in data set [10] were 7000 nM and 14000 nM, respectively. This compound also gave an IC50 in data set [11] of 20000 nM. The compound `O=C(c1cc(-c2c(O)c([N+](=O)[O-])cc(F)c2[N+](=O)[O-])cc([N+](=O)[O-])c1O)C1CCc2ccccc21` (racemic) yielded an IC50 in data set [12] of 200 nM. That is a sub-micromolar value.

In the case of `COc1ccc(F)cc1C(=O)[C@@]1(C)CCc2ccccc21`, the inhibition in data set [13] was found to be 25%. In turn, `CC(=O)N[C@@H](C)C(=O)N[C@@H](C)C(=O)N[C@H](COP(=O)(O)O)C(=O)N1CCC[C@H]1C(=O)N[C@@H](CCCNC(=N)N)C(=O)Nc1ccc([N+](=O)[O-])cc1` showed an IC50 in data set [12] of 1000 nM.

`CCOC(=O)CN1C(=O)c2ccc3c4c(ccc(c24)C1=O)C(=O)N(CC(=O)OCC)C3=O`: the IC50 in data set [14] and in data set [15] was 1500 nM throughout. Regarding `CCCCCc1ccc(CCC(=O)N[C@H](Cc2ccc(O)cc2)C(=O)N[C@@H](Cc2ccc(O)cc2)C(=O)N[C@@H](Cc2ccc3ccccc3c2)C(=O)O)cc1`, half-maximal inhibition in data set [5] (IC50) required 600 nM.
